The results in this text go back to patent publication US20100105729A1, “ARYL-SUBSTITUTED HETEROCYCLIC PDE4 INHIBITORS AS ANTI-INFLAMMATORY AGENTS” (KALYPSYS, INC., priority 2006, published 2010).

Each structure is given as a SMILES string. A value given as a limit tells only on which side of the number the result lay.

The target of the test is T1, PDE4B (Homo sapiens, UniProt Q07343).
T1 construct: hexa-histidine (His6) (N); made in house
T1 sequence (Q07343 330-659 limits assumed, species assumed): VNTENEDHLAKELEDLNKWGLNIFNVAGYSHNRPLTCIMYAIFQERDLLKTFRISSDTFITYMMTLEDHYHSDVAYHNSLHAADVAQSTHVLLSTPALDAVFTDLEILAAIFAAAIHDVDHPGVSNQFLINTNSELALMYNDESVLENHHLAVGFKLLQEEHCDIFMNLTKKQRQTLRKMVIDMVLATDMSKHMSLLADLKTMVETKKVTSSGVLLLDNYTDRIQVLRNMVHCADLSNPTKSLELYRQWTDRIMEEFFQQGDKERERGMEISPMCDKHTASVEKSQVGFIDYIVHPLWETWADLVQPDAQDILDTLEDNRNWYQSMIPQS
As to the kind of experiment: PDE4 IMAP Assay. In kind it is biochemical. Particulars: catalytic domain of PDE4B, fluorescence polarization. The text has this: Compounds may be screened for functional potency in in vitro biochemical assays for their ability to inhibit the activity of phosphodiesterase (PDE) enzymes. A commercial PDE assay, Molecular Device's PDE IMAP assay, was modified and utilized to measure the inhibitory activity of compounds on PDE isoforms. The IMAP technology is based on the high affinity binding of phosphate by immobilized metal (MIII) coordination complexes on nanoparticles. This IMAP “binding reagent” complexes with phosphate groups on the nucleotide monophosphates generated in the reaction. Such binding causes a change in the rate of the molecular motion of the nucleotide, and results in an increase in the fluorescence polarization value observed for the fluorescent label attached to the substrate. PDE inhibitors prevent the generation of nucleotide monophosphates and the subsequent increase in polarization value observed for the fluorescent label attached to the substrate. The catalytic domain of PDE4B was fused to an amino-terminus hex-histadine affinity tag and purified. PDE4B enzyme was incubated with compounds for 10 minutes. Fluorescently labeled cyclic AMP substrates were then added to the PDE enzyme mix and incubated for 2 hours at room temperature. IMAP binding reagent was then added to the enzyme mix, incubated for 10-30 minutes and fluorescent polarization of the fluorescently labeled substrate was read either with the Perkin Elmer Viewlux or Molecular Devices Acquest or Analyst. Roflumilast and Rolipram are the positive controls used in the assay.
Consider `COc1ccc(C2=NN(C(=O)c3ccccc3Cl)C(c3ccccc3F)C2)cc1OC` (stereo not drawn) [Example 34, (2-chlorophenyl)(3-(3,4-dimethoxyphenyl)-5-(2-fluorophenyl)-4,5-dihydro-1H-pyrazol-1-yl)methanone], for which the inhibition at 10 µM is at least 50%. Next, `COc1ccc(C2=NN(C(=O)c3ccccc3Cl)C(c3ccccc3Cl)C2)cc1OC` (stereo not drawn) [Example 35, (2-chlorophenyl)(5-(2-chlorophenyl)-3-(3,4-dimethoxyphenyl)-4,5-dihydro-1H-pyrazol-1-yl)methanone]: under 50%.

The compound `COc1ccc(C2CC(c3ccc(OC)c(OC)c3)=NN2C(=O)c2ccccc2)cc1` (stereo not drawn) [Example 36, (3-(3,4-dimethoxyphenyl)-5-(4-methoxyphenyl)-4,5-dihydro-1H-pyrazol-1-yl)(phenyl)methanone] had an inhibition at 10 µM of at least 50%. Under `COc1ccc(C2=NN(C(=O)c3ccccc3)C(c3ccc(N(C)C)cc3)C2)cc1OC` (stereo not drawn) [Example 37, (3-(3,4-dimethoxyphenyl)-5-(4-(dimethylamino)phenyl)-4,5-dihydro-1H-pyrazol-1-yl)(phenyl)methanone] stands under 50%; under `COc1ccc(C2=NN(C(=O)c3cccs3)C(c3cccc(OC)c3OC)C2)cc1OC` (stereo not drawn) [Example 38, (5-(2,3-dimethoxyphenyl)-3-(3,4-dimethoxyphenyl)-4,5-dihydro-1H-pyrazol-1-yl)(thiophen-2-yl)methanone], at least 50%.

In turn, `COc1ccc(C2=NN(C(=O)c3cccs3)C(c3ccccc3Cl)C2)cc1OC` (stereo not drawn) [Example 39, (5-(2-chlorophenyl)-3-(3,4-dimethoxyphenyl)-4,5-dihydro-1H-pyrazol-1-yl)(thiophen-2-yl)methanone] had an inhibition at 10 µM of under 50%.

Regarding `COc1ccc(C2CC(c3ccc(OC)c(OC)c3)=NN2C(=O)c2cccs2)cc1` (stereo not drawn) [Example 41, (3-(3,4-dimethoxyphenyl)-5-(4-methoxyphenyl)-4,5-dihydro-1H-pyrazol-1-yl)(thiophen-2-yl)methanone], the inhibition at 10 µM is at least 50%. Next, `COc1ccc(C2=NN(C(=O)c3cc(OC)c(OC)c(OC)c3)C(c3ccc(Cl)cc3)C2)cc1OC` (stereo not drawn) [Example 43, (5-(4-chlorophenyl)-3-(3,4-dimethoxyphenyl)-4,5-dihydro-1H-pyrazol-1-yl)(3,4,5-trimethoxyphenyl)methanone]: at least 50%; `COc1ccc(C2=NN(C(=O)c3cc(OC)c(OC)c(OC)c3)C(c3ccc(Br)cc3)C2)cc1OC` (stereo not drawn) [Example 44, (5-(4-bromophenyl)-3-(3,4-dimethoxyphenyl)-4,5-dihydro-1H-pyrazol-1-yl)(3,4,5-trimethoxyphenyl)methanone]: at least 50%; `COc1ccc(C2=NN(C(=O)c3cc(OC)c(OC)c(OC)c3)C(c3ccc(C)cc3)C2)cc1OC` (stereo not drawn) [Example 45, (3-(3,4-dimethoxyphenyl)-5-p-tolyl-4,5-dihydro-1H-pyrazol-1-yl)(3,4,5-trimethoxyphenyl)methanone]: at least 50%. Next, `COc1ccc(C2=NN(C(=O)c3ccc(Br)o3)C(c3ccc(F)cc3)C2)cc1OC` (stereo not drawn) [Example 46, (5-bromofuran-2-yl)(3-(3,4-dimethoxyphenyl)-5-(4-fluorophenyl)-4,5-dihydro-1H-pyrazol-1-yl)methanone]: at least 50%; `COc1ccc(C2=NN(C(=O)c3ccc(Br)o3)C(c3ccc(Cl)cc3)C2)cc1OC` (stereo not drawn) [Example 47, (5-bromofuran-2-yl)(5-(4-chlorophenyl)-3-(3,4-dimethoxyphenyl)-4,5-dihydro-1H-pyrazol-1-yl)methanone]: at least 50%; `COc1ccc(C2=NN(C(=O)c3ccc(Br)o3)C(c3ccc(C)cc3)C2)cc1OC` (stereo not drawn) [Example 48, (5-bromofuran-2-yl)(3-(3,4-dimethoxyphenyl)-5-p-tolyl-4,5-dihydro-1H-pyrazol-1-yl)methanone]: at least 50%.

`COc1ccc(C2=NN(C(=O)c3ccc(Br)o3)C(c3ccccc3F)C2)cc1OC` (stereo not drawn) [Example 49, (5-bromofuran-2-yl)(3-(3,4-dimethoxyphenyl)-5-(2-fluorophenyl)-4,5-dihydro-1H-pyrazol-1-yl)methanone] gave an inhibition at 10 µM of at least 50%. Under `COc1ccc(C2=NN(C(=O)c3ccc(Br)o3)C(c3ccccc3Cl)C2)cc1OC` (stereo not drawn) [Example 50, (5-bromofuran-2-yl)(5-(2-chlorophenyl)-3-(3,4-dimethoxyphenyl)-4,5-dihydro-1H-pyrazol-1-yl)methanone] stands under 50%. Under `COc1ccc(C2=NN(C(=O)c3ccc(Br)o3)C(c3ccccc3)C2)cc1OC` (stereo not drawn) [Example 51, (5-bromofuran-2-yl)(3-(3,4-dimethoxyphenyl)-5-phenyl-4,5-dihydro-1H-pyrazol-1-yl)methanone] stands at least 50%; under `COc1ccc(C2=NN(S(=O)(=O)c3ccc(C)cc3)C(c3cccc([N+](=O)[O-])c3)C2)cc1OC` (stereo not drawn) [Example 52, 3-(3,4-dimethoxyphenyl)-5-(3-nitrophenyl)-1-tosyl-4,5-dihydro-1H-pyrazole], under 50%.

Compound `COc1ccc(C2=NN(S(=O)(=O)c3ccccc3)C(c3cccc([N+](=O)[O-])c3)C2)cc1OC` (stereo not drawn) [Example 53, 3-(3,4-dimethoxyphenyl)-5-(3-nitrophenyl)-1-(phenylsulfonyl)-4,5-dihydro-1H-pyrazole] displayed an inhibition at 10 µM of under 50%.

Take `COc1ccc(C2=NN(S(=O)(=O)c3ccccc3)C(c3ccc(F)cc3)C2)cc1OC` (stereo not drawn) [Example 54, 3-(3,4-dimethoxyphenyl)-5-(4-fluorophenyl)-1-(phenylsulfonyl)-4,5-dihydro-1H-pyrazole]: the inhibition at 10 µM is under 50%. Next, `COc1ccc(C2=NN(S(=O)(=O)c3ccc(C)cc3)C(c3ccc(F)cc3)C2)cc1OC` (stereo not drawn) [Example 55, 3-(3,4-dimethoxyphenyl)-5-(4-fluorophenyl)-1-tosyl-4,5-dihydro-1H-pyrazole]: under 50%; `COc1ccc(C2=NN(S(=O)(=O)c3ccccc3)C(c3ccc(C)cc3)C2)cc1OC` (stereo not drawn) [Example 56, 3-(3,4-dimethoxyphenyl)-1-(phenylsulfonyl)-5-p-tolyl-4,5-dihydro-1H-pyrazole]: under 50%; `COc1ccc(C2=NN(S(=O)(=O)c3ccc(C)cc3)C(c3ccc(C)cc3)C2)cc1OC` (stereo not drawn) [Example 57, 3-(3,4-dimethoxyphenyl)-5-p-tolyl-1-tosyl-4,5-dihydro-1H-pyrazole]: under 50%.

Compound `COc1ccc(C2=NN(S(=O)(=O)c3ccccc3)C(c3ccccc3F)C2)cc1OC` (stereo not drawn) [Example 58, 3-(3,4-dimethoxyphenyl)-5-(2-fluorophenyl)-1-(phenylsulfonyl)-4,5-dihydro-1H-pyrazole] registered an inhibition at 10 µM of under 50%. For `COc1ccc(C2=NN(S(=O)(=O)c3ccccc3)C(c3ccccc3Cl)C2)cc1OC` (stereo not drawn) [Example 59, 5-(2-chlorophenyl)-3-(3,4-dimethoxyphenyl)-1-(phenylsulfonyl)-4,5-dihydro-1H-pyrazole], the inhibition at 10 µM was under 50%. The compound `COc1ccc(C2=NN(S(=O)(=O)c3ccc(C)cc3)C(c3ccccc3Cl)C2)cc1OC` (stereo not drawn) [Example 60, 5-(2-chlorophenyl)-3-(3,4-dimethoxyphenyl)-1-tosyl-4,5-dihydro-1H-pyrazole] came in with an inhibition at 10 µM of under 50%. Under `COc1ccc(C2=NN(S(=O)(=O)c3ccccc3)C(c3ccccc3OC)C2)cc1OC` (stereo not drawn) [Example 61, 3-(3,4-dimethoxyphenyl)-5-(2-methoxyphenyl)-1-(phenylsulfonyl)-4,5-dihydro-1H-pyrazole] stands under 50%. Next, `COc1ccc(C2=NN(S(=O)(=O)c3ccc(C)cc3)C(c3ccccc3)C2)cc1OC` (stereo not drawn) [Example 62, 3-(3,4-dimethoxyphenyl)-5-phenyl-1-tosyl-4,5-dihydro-1H-pyrazole]: under 50%; `COc1ccc(C2=NN(S(=O)(=O)c3ccccc3)C(c3ccccc3)C2)cc1OC` (stereo not drawn) [Example 63, 3-(3,4-dimethoxyphenyl)-5-phenyl-1-(phenylsulfonyl)-4,5-dihydro-1H-pyrazole]: under 50%; `COc1ccc(OC)c(C2CC(c3ccc(OC)c(OC)c3)=NN2C(=O)CCCC(=O)O)c1` (stereo not drawn) [Example 64, 5-(5-(2,5-dimethoxyphenyl)-3-(3,4-dimethoxyphenyl)-4,5-dihydro-1H-pyrazol-1-yl)-5-oxopentanoic acid]: under 50%.

For `COc1ccc(C2=NN(C(=O)CCCC(=O)O)C(c3ccc(F)cc3)C2)cc1OC` (stereo not drawn) [Example 65, 5-(3-(3,4-dimethoxyphenyl)-5-(4-fluorophenyl)-4,5-dihydro-1H-pyrazol-1-yl)-5-oxopentanoic acid], the inhibition at 10 µM is under 50%. Next, `COc1ccc(C2CC(c3ccc(OC)c(OC)c3)=NN2C(=O)CCCC(=O)O)cc1` (stereo not drawn) [Example 66, 5-(3-(3,4-dimethoxyphenyl)-5-(4-methoxyphenyl)-4,5-dihydro-1H-pyrazol-1-yl)-5-oxopentanoic acid]: under 50%; `COc1ccc(C2=NN(C(=O)CCCC(=O)O)C(c3ccccc3Cl)C2)cc1OC` (stereo not drawn) [Example 67, 5-(5-(2-chlorophenyl)-3-(3,4-dimethoxyphenyl)-4,5-dihydro-1H-pyrazol-1-yl)-5-oxopentanoic acid]: under 50%; `COc1ccc(C2=NN(C(=O)CCC(=O)O)C(c3ccc(OC)c(OC)c3)C2)cc1OC` (stereo not drawn) [Example 68, 4-(3,5-bis(3,4-dimethoxyphenyl)-4,5-dihydro-1H-pyrazol-1-yl)-4-oxobutanoic acid]: under 50%.
